{"source": "patent US12435051B2", "about": "“Dual modulator of mGluR5 and 5-HT2A receptor, and use thereof” (Vivozon Inc., priority 2020, dated 2025)", "key": {"human 5-HT2AR": {"biological_target": "T1, human 5-HT2AR (Homo sapiens, UniProt P28223)", "T1 construct": "expressed in transfected cells; host or cells: HEK293", "T1 sequence (P28223 whole entry)": "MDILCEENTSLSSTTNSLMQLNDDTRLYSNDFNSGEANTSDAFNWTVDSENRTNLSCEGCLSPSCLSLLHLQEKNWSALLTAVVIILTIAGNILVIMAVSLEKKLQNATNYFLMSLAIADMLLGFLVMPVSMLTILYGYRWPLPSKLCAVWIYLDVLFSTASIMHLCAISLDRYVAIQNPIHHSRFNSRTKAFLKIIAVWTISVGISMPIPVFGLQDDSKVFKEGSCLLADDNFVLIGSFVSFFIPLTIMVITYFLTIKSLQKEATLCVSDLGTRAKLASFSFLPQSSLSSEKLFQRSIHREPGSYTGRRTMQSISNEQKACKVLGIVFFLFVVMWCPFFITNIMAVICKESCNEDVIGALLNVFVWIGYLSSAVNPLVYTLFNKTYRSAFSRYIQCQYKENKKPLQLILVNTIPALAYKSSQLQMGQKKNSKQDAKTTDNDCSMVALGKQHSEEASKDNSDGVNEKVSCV", "test": "HTRF-based IP1 accumulation assay (5-HT2AR antagonistic effect)", "type": "cell-based", "conditions": "HEK293 cells overexpressing human 5-HT2AR; serotonin at EC80", "experimental": "The 5-HT2AR antagonistic effect of the test compounds was confirmed by measuring the production amount of IP1 using the HEK293 cell line permanently overexpressing the human 5-HT2AR. The test compounds were dissolved in 100% DMSO to a final concentration of 10 mM. The starting concentration of 10 μM was prepared from the stock solution, followed by serial dilutions to prepare working solutions in a buffer containing lithium chloride (LiCl). The cells and compounds prepared in the test buffer were placed in a 96-well plate and incubated at room temperature for 10 minutes. Serotonin of EC80 concentration was added, followed by incubation at 37° C. for 30 minutes in a light-shielding state. To measure IP1 accumulation in cells, JP1-d2 acceptor and IP1-Cryptate donor-which are HTRF-based substances for fluorescence signals-were added and incubated for 1 hour at room temperature in a light-shielded state. The fluorescent emission signals of acceptor and donor were detected, and HTRF ratio values were substracted by mean value of serotonin control. The percentage of activation was calculated by normalization of the serotonin control (0%) and IP1 control (100%). The IC50 values of the test compounds are represented in Table 1. (+: 1,000-2,000 nM, ++: 500-1,000 nM, +++: 100-500 nM, ++++: less than 100 nM)."}, "mGluR5": {"biological_target": "T2, mGluR5 (Homo sapiens, UniProt P41594)", "T2 construct": "expressed in transfected cells; host or cells: HEK293", "T2 sequence (P41594 21-1212)": "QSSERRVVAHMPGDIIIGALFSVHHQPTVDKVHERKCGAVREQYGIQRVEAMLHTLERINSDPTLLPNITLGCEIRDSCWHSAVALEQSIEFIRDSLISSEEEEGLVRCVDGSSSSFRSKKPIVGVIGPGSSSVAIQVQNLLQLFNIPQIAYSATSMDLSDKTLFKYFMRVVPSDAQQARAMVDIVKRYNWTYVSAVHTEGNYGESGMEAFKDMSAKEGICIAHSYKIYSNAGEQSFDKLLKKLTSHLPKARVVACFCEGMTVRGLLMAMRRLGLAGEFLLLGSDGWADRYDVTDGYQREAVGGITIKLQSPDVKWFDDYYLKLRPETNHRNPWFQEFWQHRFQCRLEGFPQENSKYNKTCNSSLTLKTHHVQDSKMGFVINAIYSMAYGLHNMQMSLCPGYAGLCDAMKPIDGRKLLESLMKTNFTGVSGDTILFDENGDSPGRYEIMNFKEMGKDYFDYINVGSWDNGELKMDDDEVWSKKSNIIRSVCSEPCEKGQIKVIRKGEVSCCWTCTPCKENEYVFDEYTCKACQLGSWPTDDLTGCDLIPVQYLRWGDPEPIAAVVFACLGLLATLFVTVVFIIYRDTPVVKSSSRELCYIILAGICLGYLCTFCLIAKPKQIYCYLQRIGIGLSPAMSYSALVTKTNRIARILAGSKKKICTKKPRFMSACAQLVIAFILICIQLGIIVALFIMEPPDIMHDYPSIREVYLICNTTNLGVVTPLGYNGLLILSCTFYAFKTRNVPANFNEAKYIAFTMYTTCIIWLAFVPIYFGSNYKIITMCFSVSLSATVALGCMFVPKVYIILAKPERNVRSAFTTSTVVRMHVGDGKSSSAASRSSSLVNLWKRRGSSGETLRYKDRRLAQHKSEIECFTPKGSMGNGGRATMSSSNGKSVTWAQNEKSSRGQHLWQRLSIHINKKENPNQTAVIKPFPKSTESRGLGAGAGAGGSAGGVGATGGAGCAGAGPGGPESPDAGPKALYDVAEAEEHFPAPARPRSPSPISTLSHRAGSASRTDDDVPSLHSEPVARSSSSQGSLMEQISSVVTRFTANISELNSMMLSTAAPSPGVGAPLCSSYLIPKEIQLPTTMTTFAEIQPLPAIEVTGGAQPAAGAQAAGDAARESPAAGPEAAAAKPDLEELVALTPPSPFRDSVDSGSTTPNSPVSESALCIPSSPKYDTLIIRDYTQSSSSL", "test": "Fluorescence-based Ca2+ mobilization assay", "type": "cell-based", "conditions": "HEK293 cells overexpressing mGluR5; L-glutamate at EC80", "experimental": "In order to measure the activity on the mGluR5, an experiment was carried out to check the change in the intracellular Ca^2+ level using the HEK293 cell line permanently overexpressing the mGluR5. The cells in the cell culture medium were aliquoted into a 384-well plate coated with poly-D-lysine and cultured in a 37° C. incubator supplied with 5% CO2. The next day, the medium was removed and a dye loading buffer—in which a reagent capable of measuring Ca^2+ was dissolved—was added, and then incubated at 37° C. for 60 minutes. The test compounds were dissolved in 100% DMSO at a final concentration of 10 mM to make a stock solution. The starting concentration of […] was prepared from the stock solution, followed by serial dilutions to prepare working solutions (test compound working solutions). The test compound working solutions were added to the cells that were incubated in the dye loading buffer, which were maintained for 30 minutes at room temperature in a light-shielding state before measurement. The Ca^2+ level change induced by L-glutamate at EC80 concentration was measured for 2 minutes using FLIPR Tetra (MDS Analytical Technologies). The fluorescent Ca^2+ signal values in the presence of the test compounds were normalized to the fluorescent signal elicited by […] concentration of L-glutamate as 100% and that elicited by vehicle as 0% to estimate % inhibition of the test compounds. The efficacy of the test compounds was calculated as IC50 values and represented in Table 1. (+: 1,000-2,000 nM, ++: 500-1,000 nM, +++: 100-500 nM, ++++: less than 100 nM)."}}, "note": "pIC50: −log10 of the molar value."}
{"molecule": "COC(=O)CCC1(CNC(=O)c2ccc(C#Cc3ccccc3F)cc2)CCCCC1", "note": "[Example 59, methyl 3-(1-((4-((2-fluorophenyl)ethynyl)benzamido)methyl)cyclohexyl)propanoate]", "values": [{"measurement": "pIC50", "setting": "human 5-HT2AR", "value": "6.00 to 6.30"}, {"measurement": "pIC50", "setting": "mGluR5", "value": "6.30 to 7.00"}]}
{"molecule": "CC1(CNC(=O)c2ccc(C#Cc3ccc(F)cc3)cc2)CCC1", "note": "[Example 106, 4-((4-fluorophenyl)ethynyl)-N-((1-methylcyclobutyl)methyl)benzamide]", "values": [{"measurement": "pIC50", "setting": "human 5-HT2AR", "value": "6.30 to 7.00"}, {"measurement": "pIC50", "setting": "mGluR5", "value": "> 7.00"}]}
{"molecule": "O=C(NCC1(c2cccnc2)CCCC1)c1ccc(C#Cc2ccccc2F)cc1", "note": "[Example 34, 4-((2-fluorophenyl)ethynyl)-N-((1-(pyridin-3-yl)cyclopentyl)methyl)benzamide]", "values": [{"measurement": "pIC50", "setting": "human 5-HT2AR", "value": "5.70 to 6.00"}, {"measurement": "pIC50", "setting": "mGluR5", "value": "6.00 to 6.30"}]}
{"molecule": "CC1(C)CC(CNC(=O)c2ccc(C#Cc3ccccc3F)cc2)CO1", "note": "(centres unmarked) [Example 70, N-((5,5-dimethyltetrahydrofuran-3-yl)methyl)-4-((2-fluorophenyl)ethynyl)benzamide]", "values": [{"measurement": "pIC50", "setting": "human 5-HT2AR", "value": "6.00 to 6.30"}, {"measurement": "pIC50", "setting": "mGluR5", "value": "6.30 to 7.00"}]}
{"molecule": "O=C(NC[C@@H]1CCOC1)c1ccc(C#Cc2ccccc2F)cc1", "note": "[Example 93, (S)-4-((2-fluorophenyl)ethynyl)-N-((tetrahydrofuran-3-yl)methyl)benzamide]", "values": [{"measurement": "pIC50", "setting": "human 5-HT2AR", "value": "6.30 to 7.00"}, {"measurement": "pIC50", "setting": "mGluR5", "value": "6.30 to 7.00"}]}
{"molecule": "O=C(NC[C@H]1CCOC1)c1ccc(C#Cc2ccc(F)cc2)cc1", "note": "[Example 101, (R)-4-((4-fluorophenyl)ethynyl)-N-((tetrahydrofuran-3-yl)methyl)benzamide]", "values": [{"measurement": "pIC50", "setting": "human 5-HT2AR", "value": "6.30 to 7.00"}, {"measurement": "pIC50", "setting": "mGluR5", "value": "> 7.00"}]}
{"molecule": "O=C(NCC1(F)CCOCC1)c1ccc(C#Cc2ccccc2F)cc1", "note": "[Example 48, 4-((2-fluorophenyl)ethynyl)-N-((4-fluorotetrahydro-2H-pyran-4-yl)methyl)benzamide]", "values": [{"measurement": "pIC50", "setting": "human 5-HT2AR", "value": "6.00 to 6.30"}, {"measurement": "pIC50", "setting": "mGluR5", "value": "> 7.00"}]}
{"molecule": "O=C(NC[C@H]1CCCO1)c1ccc(C#Cc2ccc(F)cc2F)cc1", "note": "[Example 114, (R)-4-((2,4-difluorophenyl)ethynyl)-N-((tetrahydrofuran-2-yl)methyl)benzamide]", "values": [{"measurement": "pIC50", "setting": "human 5-HT2AR", "value": "> 7.00"}, {"measurement": "pIC50", "setting": "mGluR5", "value": "> 7.00"}]}
{"molecule": "NC(=O)CC1(CNC(=O)c2ccc(C#Cc3ccccc3F)cc2)CCOCC1", "note": "[Example 78, N-((4-(2-amino-2-oxoethyl)tetrahydro-2H-pyran-4-yl)methyl)-4-((2-fluorophenyl)ethynyl)benzamide]", "values": [{"measurement": "pIC50", "setting": "human 5-HT2AR", "value": "5.70 to 6.00"}, {"measurement": "pIC50", "setting": "mGluR5", "value": "6.30 to 7.00"}]}
{"molecule": "NC(=O)CC1(CNC(=O)c2ccc(C#Cc3ccccc3F)cc2)CCCCC1", "note": "[Example 77, N-((1-(2-amino-2-oxoethyl)cyclohexyl)methyl)-4-((2-fluorophenyl)ethynyl)benzamide]", "values": [{"measurement": "pIC50", "setting": "human 5-HT2AR", "value": "5.70 to 6.00"}, {"measurement": "pIC50", "setting": "mGluR5", "value": "> 7.00"}]}
{"molecule": "O=C(NCC1(F)COC1)c1ccc(C#Cc2ccccc2F)cc1", "note": "[Example 103, N-((3-fluorooxetan-3-yl)methyl)-4-((2-fluorophenyl)ethynyl)benzamide]", "values": [{"measurement": "pIC50", "setting": "human 5-HT2AR", "value": "5.70 to 6.00"}, {"measurement": "pIC50", "setting": "mGluR5", "value": "5.70 to 6.00"}]}
{"molecule": "O=C(NCC1(NC2CC2)CCC1)c1ccc(C#Cc2ccccn2)cc1", "note": "[Example 8, N-((1-(cyclopropylamino)cyclobutyl)methyl)-4-(pyridin-2-ylethynyl)benzamide]", "values": [{"measurement": "pIC50", "setting": "human 5-HT2AR", "value": "5.70 to 6.00"}, {"measurement": "pIC50", "setting": "mGluR5", "value": "6.00 to 6.30"}]}
{"molecule": "CC1(CNC(=O)c2ccc(C#Cc3ccc(F)cc3)cc2)CCCO1", "note": "(centres unmarked) [Example 116, 4-((4-fluorophenyl)ethynyl)-N-((2-methyltetrahydrofuran-2-yl)methyl)benzamide]", "values": [{"measurement": "pIC50", "setting": "human 5-HT2AR", "value": "> 7.00"}, {"measurement": "pIC50", "setting": "mGluR5", "value": "> 7.00"}]}
{"molecule": "O=C(NC[C@@H]1CCOC1)c1ccc(C#Cc2ccc(F)cc2F)cc1", "note": "[Example 113, (S)-4-((2,4-difluorophenyl)ethynyl)-N-((tetrahydrofuran-3-yl)methyl)benzamide]", "values": [{"measurement": "pIC50", "setting": "human 5-HT2AR", "value": "> 7.00"}, {"measurement": "pIC50", "setting": "mGluR5", "value": "6.00 to 6.30"}]}
{"molecule": "CC1(CNC(=O)c2ccc(C#Cc3ccc(F)cc3F)cc2)CCCO1", "note": "(centres unmarked) [Example 119, 4-((2,4-difluorophenyl)ethynyl)-N-((2-methyltetrahydrofuran-2-yl)methyl)benzamide]", "values": [{"measurement": "pIC50", "setting": "human 5-HT2AR", "value": "> 7.00"}, {"measurement": "pIC50", "setting": "mGluR5", "value": "> 7.00"}]}
{"molecule": "O=C(NCC1(NCC(F)(F)F)CCCCC1)c1ccc(C#Cc2ccncc2)cc1", "note": "[Example 31, 4-(pyridin-4-ylethynyl)-N-((1-((2,2,2-trifluoroethyl)amino)cyclohexyl)methyl)benzamide]", "values": [{"measurement": "pIC50", "setting": "human 5-HT2AR", "value": "5.70 to 6.00"}, {"measurement": "pIC50", "setting": "mGluR5", "value": "5.70 to 6.00"}]}
{"molecule": "O=C(NCC1CC(F)(F)C1)c1ccc(C#Cc2ccccc2)cc1", "note": "[Example 90, N-((3,3-difluorocyclobutyl)methyl)-4-(phenylethynyl)benzamide]", "values": [{"measurement": "pIC50", "setting": "human 5-HT2AR", "value": "6.30 to 7.00"}, {"measurement": "pIC50", "setting": "mGluR5", "value": "> 7.00"}]}
{"molecule": "O=C(NCC1(NC2CC2)CCCC1)c1ccc(C#Cc2ccc(F)c(F)c2)cc1", "note": "[Example 17, N-((1-(cyclopropylamino)cyclopentyl)methyl)-4-((3,4-difluorophenyl)ethynyl)benzamide]", "values": [{"measurement": "pIC50", "setting": "human 5-HT2AR", "value": "6.30 to 7.00"}, {"measurement": "pIC50", "setting": "mGluR5", "value": "5.70 to 6.00"}]}
{"molecule": "O=C(NCC1CCCO1)c1ccc(C#Cc2ccccc2F)cc1", "note": "(centres unmarked) [Example 71, 4-((2-fluorophenyl)ethynyl)-N-((tetrahydrofuran-2-yl)methyl)benzamide]", "values": [{"measurement": "pIC50", "setting": "human 5-HT2AR", "value": "6.00 to 6.30"}, {"measurement": "pIC50", "setting": "mGluR5", "value": "> 7.00"}]}
{"molecule": "CC1(CNC(=O)c2ccc(C#Cc3ccccc3F)cc2)CCOCC1", "note": "[Example 36, 4-((2-fluorophenyl)ethynyl)-N-((4-methyltetrahydro-2H-pyran-4-yl)methyl)benzamide]", "values": [{"measurement": "pIC50", "setting": "human 5-HT2AR", "value": "6.00 to 6.30"}, {"measurement": "pIC50", "setting": "mGluR5", "value": "> 7.00"}]}
{"molecule": "C[C@@H](NC(=O)c1ccc(C#Cc2ccccc2F)cc1)C1CCOCC1", "note": "[Example 47, (R)-4-((2-fluorophenyl)ethynyl)-N-(1-(tetrahydro-2H-pyran-4-yl)ethyl)benzamide]", "values": [{"measurement": "pIC50", "setting": "human 5-HT2AR", "value": "6.30 to 7.00"}, {"measurement": "pIC50", "setting": "mGluR5", "value": "> 7.00"}]}
{"molecule": "O=C(NCC1(NC2CC2)CCC1)c1ccc(C#Cc2ccc(F)cc2)cc1", "note": "[Example 6, N-((1-(cyclopropylamino)cyclobutyl)methyl)-4-((4-fluorophenyl)ethynyl)benzamide]", "values": [{"measurement": "pIC50", "setting": "human 5-HT2AR", "value": "> 7.00"}, {"measurement": "pIC50", "setting": "mGluR5", "value": "6.00 to 6.30"}]}
{"molecule": "O=C(O)CCC1(CNC(=O)c2ccc(C#Cc3ccccc3F)cc2)CCOCC1", "note": "[Example 60, 3-(4-((4-((2-fluorophenyl)ethynyl)benzamido)methyl)tetrahydro-2H-pyran-4-yl)propanoic acid]", "values": [{"measurement": "pIC50", "setting": "human 5-HT2AR", "value": "6.00 to 6.30"}, {"measurement": "pIC50", "setting": "mGluR5", "value": "6.00 to 6.30"}]}
{"molecule": "CC(C)(C)CNC1(CNC(=O)c2ccc(C#Cc3ccccc3F)cc2)CCCCC1", "note": "[Example 28, 4-((2-fluorophenyl)ethynyl)-N-((1-(neopentylamino)cyclohexyl)methyl)benzamide]", "values": [{"measurement": "pIC50", "setting": "human 5-HT2AR", "value": "6.30 to 7.00"}, {"measurement": "pIC50", "setting": "mGluR5", "value": "5.70 to 6.00"}]}
{"molecule": "CC1(CNC(=O)c2ccc(C#Cc3ccccc3F)cc2)CCCO1", "note": "(centres unmarked) [Example 98, 4-((2-fluorophenyl)ethynyl)-N-((2-methyltetrahydrofuran-2-yl)methyl)benzamide]", "values": [{"measurement": "pIC50", "setting": "human 5-HT2AR", "value": "6.00 to 6.30"}, {"measurement": "pIC50", "setting": "mGluR5", "value": "> 7.00"}]}
